# Measurements from publication PMC11124822, “Discovery and Anticancer Screening of Novel Oxindole-Based Derivative Bearing Pyridyl Group as Potent and Selective Dual FLT3/CDK2 Kinase Inhibitor” (Pharmaceuticals, 2024).
# Tests used:
# SNB-75 = assay: NCI-60 antiproliferative screen (SRB); details: Homo sapiens, SNB-75, 48 h, read-out: Growth inhibition (%)
# Description: (§1) Anticancer activity was tested against 60 cancer cell lines (NCI-60) after 48h treatments with a single dosage of 10 μM of compounds by using sulforhodamine B assay [39] on the traditional 96-well platform. […] The human cancer cell lines of the NCI-60 panel are grown in RPMI 1640 medium supplemented with 5% FBS (fetal bovine serum) and 2 mM L-glutamine. […] For further analysis of promising compounds, five dose screens were performed against the NCI-60 panel. Drug treatments are performed in 5 doses using 10-fold or ½ log dose dilutions.
# SK-OV-3 = assay: NCI-60 antiproliferative screen (SRB); format: cell-based, human; details: Homo sapiens; 10 µM single dose, 48 h; SK-OV-3 (Ovarian); read-out: Growth inhibition (%)
# NCI-H522 = assay: NCI-60 antiproliferative screen (SRB); format: cell-based, human; details: Homo sapiens; 10 µM single dose, 48 h; NCI-H522 (NSCLC); read-out: Growth inhibition (%)
# HOP-62 = assay: NCI-60 antiproliferative screen (SRB); format: cell-based, human; details: Homo sapiens; 10 µM single dose, 48 h; HOP-62 (NSCLC); read-out: Growth inhibition (%)
# SNB-19 = assay: NCI-60 antiproliferative screen (SRB); format: cell-based, human; details: Homo sapiens; 10 µM single dose, 48 h; SNB-19 (CNS); read-out: Growth inhibition (%)
# CAKI-1 = assay: NCI-60 antiproliferative screen (SRB); format: cell-based, human; details: Homo sapiens; 10 µM single dose, 48 h; CAKI-1 (Renal); read-out: Growth inhibition (%)
# KM12 = assay: NCI-60 antiproliferative screen (SRB); format: cell-based, human; details: Homo sapiens; 10 µM single dose, 48 h; KM12 (Colon); read-out: Growth inhibition (%)
# SW-620 = assay: NCI-60 antiproliferative screen (SRB); format: cell-based, human; details: Homo sapiens; 10 µM single dose, 48 h; SW-620 (Colon); read-out: Growth inhibition (%)
# HCC-2998 = assay: NCI-60 antiproliferative screen (SRB); format: cell-based, human; details: Homo sapiens; 10 µM single dose, 48 h; HCC-2998 (Colon); read-out: Growth inhibition (%)
# EKVX = assay: NCI-60 antiproliferative screen (SRB); format: cell-based, human; details: Homo sapiens; 10 µM single dose, 48 h; EKVX (NSCLC); read-out: Growth inhibition (%)
# HL-60(TB) = assay: NCI-60 antiproliferative screen (SRB); format: cell-based, human; details: Homo sapiens; 10 µM single dose, 48 h; HL-60(TB) (Leukemia); read-out: Growth inhibition (%)
# HCT-15 = assay: NCI-60 antiproliferative screen (SRB); format: cell-based, human; details: Homo sapiens; 10 µM single dose, 48 h; HCT-15 (Colon); read-out: Growth inhibition (%)
# NCI-H322M = assay: NCI-60 antiproliferative screen (SRB); format: cell-based, human; details: Homo sapiens; 10 µM single dose, 48 h; NCI-H322M (NSCLC); read-out: Growth inhibition (%)
# NCI-H226 = assay: NCI-60 antiproliferative screen (SRB); format: cell-based, human; details: Homo sapiens; 10 µM single dose, 48 h; NCI-H226 (NSCLC); read-out: Growth inhibition (%)
# SN12C = assay: NCI-60 antiproliferative screen (SRB); format: cell-based, human; details: Homo sapiens; 10 µM single dose, 48 h; SN12C (Renal); read-out: Growth inhibition (%)
# COLO 205 = assay: NCI-60 antiproliferative screen (SRB); format: cell-based, human; details: Homo sapiens; 10 µM single dose, 48 h; COLO 205 (Colon); read-out: Growth inhibition (%)
# MALME-3M = assay: NCI-60 antiproliferative screen (SRB); format: cell-based, human; details: Homo sapiens; 10 µM single dose, 48 h; MALME-3M (Melanoma); read-out: Growth inhibition (%)
# IGROV1 = assay: NCI-60 antiproliferative screen (SRB); format: cell-based, human; details: Homo sapiens, IGROV-1; 10 µM single dose, 48 h; IGROV1 (Ovarian); read-out: Growth inhibition (%)
# MDA-MB-435 = assay: NCI-60 antiproliferative screen (SRB); format: cell-based, human; details: Homo sapiens; 10 µM single dose, 48 h; MDA-MB-435 (Melanoma); read-out: Growth inhibition (%)
# M14 = assay: NCI-60 antiproliferative screen (SRB); format: cell-based, human; details: Homo sapiens; 10 µM single dose, 48 h; M14 (Melanoma); read-out: Growth inhibition (%)
# [1] = test system: NCI-60 human cancer cell lines; assay: NCI-60 screen, full panel summary; format: cell-based; details: 10 µM single dose; for Mean Growth Percent: all NCI-60 cell lines
# Description: In a comprehensive test, compounds were assayed at a single dose concentration (10^−5 M) in the full panel of NCI-60 cancer cell lines.
# UACC-62 = assay: NCI-60 antiproliferative screen (SRB); format: cell-based, human; details: Homo sapiens; 10 µM single dose, 48 h; UACC-62 (Melanoma); read-out: Growth inhibition (%)
# SR = assay: NCI-60 antiproliferative screen (SRB); details: Homo sapiens, 48 h, read-out: Growth inhibition (%)
# Description: as §1
# MOLT-4 = assay: NCI-60 antiproliferative screen (SRB); format: cell-based; details: Homo sapiens; 10 µM single dose, 48 h; MOLT-4 (Leukemia); read-out: Growth inhibition (%)
# HT29 = assay: NCI-60 antiproliferative screen (SRB); format: cell-based, human; details: Homo sapiens, HT-29; 10 µM single dose, 48 h; HT29 (Colon); read-out: Growth inhibition (%)
# SF-539 = assay: NCI-60 antiproliferative screen (SRB); format: cell-based, human; details: Homo sapiens; 10 µM single dose, 48 h; SF-539 (CNS); read-out: Growth inhibition (%)
# UO-31 = assay: NCI-60 antiproliferative screen (SRB); format: cell-based, human; details: Homo sapiens; 10 µM single dose, 48 h; UO-31 (Renal); read-out: Growth inhibition (%)
# LOX IMVI = assay: NCI-60 antiproliferative screen (SRB); format: cell-based, human; details: Homo sapiens; 10 µM single dose, 48 h; LOX IMVI (Melanoma); read-out: Growth inhibition (%)
# T-47D = assay: NCI-60 antiproliferative screen (SRB); format: cell-based, human; details: Homo sapiens, T47D; 10 µM single dose, 48 h; T-47D (Breast); read-out: Growth inhibition (%)
# SK-MEL-5 = assay: NCI-60 antiproliferative screen (SRB); format: cell-based, human; details: Homo sapiens; 10 µM single dose, 48 h; SK-MEL-5 (Melanoma); read-out: Growth inhibition (%)
Structure (SMILES),inhibition at 10 µM (SNB-75) [%],inhibition at 10 µM (SK-OV-3) [%],inhibition at 10 µM (NCI-H522) [%],inhibition at 10 µM (HOP-62) [%],inhibition at 10 µM (SNB-19) [%],inhibition at 10 µM (CAKI-1) [%],inhibition at 10 µM (KM12) [%],inhibition at 10 µM (SW-620) [%],inhibition at 10 µM (HCC-2998) [%],inhibition at 10 µM (EKVX) [%],inhibition at 10 µM (HL-60(TB)) [%],inhibition at 10 µM (HCT-15) [%],inhibition at 10 µM (NCI-H322M) [%],inhibition at 10 µM (NCI-H226) [%],inhibition at 10 µM (SN12C) [%],inhibition at 10 µM (COLO 205) [%],inhibition at 10 µM (MALME-3M) [%],inhibition at 10 µM (IGROV1) [%],inhibition at 10 µM (MDA-MB-435) [%],inhibition at 10 µM (M14) [%],other results
"O=C1Nc2ccccc2C1=Cc1ccc(OCc2ccncc2)cc1 (mixture of isomers) [Compound 5m, (E/Z)-3-[4-(Pyridin-4-ylmethoxy)benzylidene] indolin-2-one]",35.2,9.38,32.7,23,43.1,45.6,66.3,22,20.6,63.5,55.3,62.3,20.9,42.4,21.4,38.3,17.4,25.4,49.6,23.7,Positive Cytostatic Effect (cell lines with percent growth from 0 to 50 / total number of cell lines) [1]: 14/59; Positive Cytotoxic Effect (cell lines with percent growth of <0 / total number of cell lines) [1]: 0/59; Sensitive/Total Cell Lines [1]: 14/59; The Most Sensitive Cell Line [1]: MDA-MB-468; number of cell lines with cytostatic effects [1]: 14; Mean Growth Percent [1]: 38.04; inhibition at 10 µM (UACC-62): 31.1%; inhibition at 10 µM (SR): 73.3%; inhibition at 10 µM (MOLT-4): 78.5%; inhibition at 10 µM (HT29): 11.2%; inhibition at 10 µM (SF-539): 24.9%; inhibition at 10 µM (UO-31): 44.7%; inhibition at 10 µM (LOX IMVI): 41.4%; inhibition at 10 µM (T-47D): 65.1%; inhibition at 10 µM (SK-MEL-5): 90%
"O=C1Nc2ccc(F)cc2C1=Cc1ccc(OCc2ccncc2)cc1 (mixture of isomers) [Compound 5n, (E/Z)-5-Fluoro-3-[4-(pyridin-4-ylmethoxy)benzylidene] indolin-2-one]",26.6,13.7,82,17,60.5,62.3,69.8,41.1,25.7,52.2,57.8,78.8,27.6,44.5,41.3,22.1,26.8,64.7,61.7,32.5,Positive Cytostatic Effect (cell lines with percent growth from 0 to 50 / total number of cell lines) [1]: 26/59; Positive Cytotoxic Effect (cell lines with percent growth of <0 / total number of cell lines) [1]: 0/59; Sensitive/Total Cell Lines [1]: 26/59; The Most Sensitive Cell Line [1]: SK-MEL-5; number of cell lines with cytostatic effects [1]: 26; Mean Growth Percent [1]: 46.02; inhibition at 10 µM (UACC-62): 28.4%; inhibition at 10 µM (SR): 85.4%; inhibition at 10 µM (MOLT-4): 76.7%; inhibition at 10 µM (HT29): 36.4%; inhibition at 10 µM (SF-539): 41.7%; inhibition at 10 µM (UO-31): 54.8%; inhibition at 10 µM (LOX IMVI): 67.3%; inhibition at 10 µM (T-47D): 64.3%; inhibition at 10 µM (SK-MEL-5): 93.1%
"O=C1Nc2ccc(Cl)cc2C1=Cc1ccc(OCc2ccncc2)cc1 (mixture of isomers) [Compound 5o, (E/Z)-5-Chloro-3-[4-(pyridin-4-ylmethoxy)benzylidene] indolin-2-one]",21.2,11.4,86,19.7,73.8,38.7,60.6,48.3,12.4,37.6,66.5,79.1,40.6,38.3,34.4,19.2,43,84.7,58.7,33,Positive Cytostatic Effect (cell lines with percent growth from 0 to 50 / total number of cell lines) [1]: 28/59; Positive Cytotoxic Effect (cell lines with percent growth of <0 / total number of cell lines) [1]: 0/59; Sensitive/Total Cell Lines [1]: 28/59; The Most Sensitive Cell Line [1]: MCF7; number of cell lines with cytostatic effects [1]: 28; Mean Growth Percent [1]: 47.19; inhibition at 10 µM (UACC-62): 37.6%; inhibition at 10 µM (SR): 88.9%; inhibition at 10 µM (MOLT-4): 81.2%; inhibition at 10 µM (HT29): 39.7%; inhibition at 10 µM (SF-539): 44%; inhibition at 10 µM (UO-31): 51.1%; inhibition at 10 µM (LOX IMVI): 58.7%; inhibition at 10 µM (T-47D): 61%; inhibition at 10 µM (SK-MEL-5): 62.6%
"O=C1Nc2cc(Cl)ccc2C1=Cc1ccc(OCc2ccncc2)cc1 (mixture of isomers) [Compound 5p, (E/Z)-6-Chloro-3-[4-(pyridin-4-ylmethoxy)benzylidene]indolin-2-one]",14.9,15.5,45.2,21.4,28.7,52.8,47.8,49.5,20.1,45.1,52.4,76.9,22.5,49.5,34.6,39.7,12.5,67.9,29.2,16.9,Positive Cytostatic Effect (cell lines with percent growth from 0 to 50 / total number of cell lines) [1]: 21/59; Positive Cytotoxic Effect (cell lines with percent growth of <0 / total number of cell lines) [1]: 0/59; Sensitive/Total Cell Lines [1]: 21/59; The Most Sensitive Cell Line [1]: SF-539; number of cell lines with cytostatic effects [1]: 21; Mean Growth Percent [1]: 41.27; inhibition at 10 µM (UACC-62): 34.7%; inhibition at 10 µM (SR): 72.6%; inhibition at 10 µM (MOLT-4): 79%; inhibition at 10 µM (HT29): 37.8%; inhibition at 10 µM (SF-539): 94.2%; inhibition at 10 µM (UO-31): 49%; inhibition at 10 µM (LOX IMVI): 65.2%; inhibition at 10 µM (T-47D): 67.1%; inhibition at 10 µM (SK-MEL-5): 65%
